What was measured:
Experiment in all cases: Bliss excess, mean over the matrix (fraction); higher = more synergy
[1] = system: ONS-76 (Other Solid Carcinomas)
How it was run: (§1)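 Cell lines in DMEM/F12 or RPMI with 10% FBS were plated in 1536-well plates, held 24 hours at 37°C, 5% CO2, then given two-drug dose matrices for 72 hours (DMSO typically 0.2%). Viability was read by CellTiter-Glo 2.0 luminescence and scaled as inhibition from 0 (vehicle wells) to 1 (blank wells). Combination Emax is the second-highest inhibition in the matrix; Bliss excess is observed combination effect minus expected EA + EB − EA·EB, EA and EB being single-agent effects.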

ARH-77 (Non-Cancerous) = system: ARH-77 (Non-Cancerous)
How it was run: as §1

IGR-37 (Melanoma) = system: IGR-37 (Melanoma)
How it was run: as §1

[2] = system: PANC-10-05 (Pancreatic Carcinoma)
How it was run: as §1

[3] = system: NCI-H1650 (Lung Adenocarcinoma)
How it was run: as §1

GI-ME-N (Neuroblastoma) = system: GI-ME-N (Neuroblastoma)
How it was run: as §1

[4] = system: COLO-320-HSR (Colorectal Carcinoma)
How it was run: as §1

[5] = system: KARPAS-422 (B-Cell Non-Hodgkin's Lymphoma)
How it was run: as §1

[6] = system: NCI-H2066 (Squamous Cell Lung Carcinoma)
How it was run: as §1

LN-405 (Glioblastoma) = system: LN-405 (Glioblastoma)
How it was run: as §1

A498 (Kidney Carcinoma) = system: A498 (Kidney Carcinoma)
How it was run: as §1

[7] = system: SISO (Cervical Carcinoma)
How it was run: as §1

PA-1 (Ovarian Carcinoma) = system: PA-1 (Ovarian Carcinoma)
How it was run: as §1

[8] = system: CAPAN-2 (Pancreatic Carcinoma)
How it was run: as §1

[9] = system: BICR22 (Oral Cavity Carcinoma)
How it was run: as §1

[10] = system: COLO-824 (Breast Carcinoma)
How it was run: as §1

[11] = system: OS-RC-2 (Kidney Carcinoma)
How it was run: as §1

[12] = system: SK-MES-1 (Squamous Cell Lung Carcinoma)
How it was run: as §1

[13] = system: CAL-29 (Bladder Carcinoma)
How it was run: as §1

[14] = system: NCI-H64 (Small Cell Lung Carcinoma)
How it was run: as §1

| SMILES | Bliss excess [1] | Bliss excess (ARH-77 (Non-Cancerous)) | Bliss excess (IGR-37 (Melanoma)) | Bliss excess [2] | Bliss excess [3] | Bliss excess (GI-ME-N (Neuroblastoma)) | Bliss excess [4] | Bliss excess [5] | Bliss excess [6] | Bliss excess (LN-405 (Glioblastoma)) | Bliss excess (A498 (Kidney Carcinoma)) | Bliss excess [7] | Bliss excess (PA-1 (Ovarian Carcinoma)) | Bliss excess [8] | Bliss excess [9] | Bliss excess [10] | Bliss excess [11] | Bliss excess [12] | Bliss excess [13] | Bliss excess [14] |
| --- | --- | --- | --- | --- | --- | --- | --- | --- | --- | --- | --- | --- | --- | --- | --- | --- | --- | --- | --- | --- |
| Cn1cnc2c(F)c(Nc3ccc(Br)cc3Cl)c(C(=O)NOCCO)cc21 [Selumetinib] + CCN(CCO)CCCOc1ccc2c(Nc3cc(CC(=O)Nc4cccc(F)c4)[nH]n3)ncnc2c1 [AZD2811] (first compound max 10 µM, 7x7, partner max 1 µM) | -0.0464 | 0.0498 | -0.0274 | -0.0367 | -0.0333 | -0.0614 | -0.0398 | 0.0206 | -0.0322 | -0.0367 | 0.002 | 0.015 | -0.0998 | 0.0517 | -0.0731 | -0.0218 | -0.0252 | -0.048 | 0.0023 | 0.0312 |
| Cn1cnc2c(F)c(Nc3ccc(Br)cc3Cl)c(C(=O)NOCCO)cc21 [Selumetinib] + C[C@@H]1COCCN1C2=NC(=NC(=C2)C3(CC3)[S@](=N)(=O)C)C4=C5C=CNC5=NC=C4 [AZD6738] (first compound max 10 µM, 7x7, partner max 10 µM) | -0.0914 | 0.029 | -0.0122 | -0.07 | -0.0315 | -0.0028 | -0.0678 | -0.0396 | 0.004 | -0.0448 | -0.023 | -0.0241 | 0.0267 | 0.0596 | -0.0834 | -0.0111 | -0.0455 | -0.025 | 0.0155 | -0.0464 |
| CC(=O)Nc1cccc(-n2c(=O)n(C3CC3)c(=O)c3c(Nc4ccc(I)cc4F)n(C)c(=O)c(C)c32)c1 [Trametinib] + Cc1nc(-c2cn3c(n2)-c2ccc(-c4cnn(C(C)(C)C(N)=O)c4)cc2OCC3)n(C(C)C)n1 [Taselisib] (first compound max 1 µM, 7x7, partner max 10 µM) | 0.0124 | 0.0785 | 0.0677 | 0.0968 | 0.0443 | 0.0954 | 0.0338 | 0.0204 | 0.0386 | 0.0342 | 0.0344 | 0.0809 | 0.05 | 0.117 | 0.16 | 0.21 | -0.0198 | 0.198 | 0.136 | 0.0284 |
| CC1(C)CCC(CN2CCN(c3ccc(C(=O)NS(=O)(=O)c4ccc(NCC5CCOCC5)c([N+](=O)[O-])c4)c(Oc4cnc5[nH]ccc5c4)c3)CC2)=C(c2ccc(Cl)cc2)C1 [Venetoclax] + C1CN(CCC1(C(=O)N[C@@H](CCO)C2=CC=C(C=C2)Cl)N)C3=NC=NC4=C3C=CN4 [Capivasertib] (first compound max 1 µM, 7x7, partner max 3 µM) | -0.114 | 0.054 | -0.0448 | -0.0656 | -0.0329 | -0.0685 | -0.0006 | 0.0459 | -0.0142 | -0.0712 | -0.121 | -0.0557 | -0.0541 | -0.0658 | -0.0249 | 0.0048 | -0.0442 | -0.044 | -0.0319 | 0.0083 |
| CC1(C)CCC(CN2CCN(c3ccc(C(=O)NS(=O)(=O)c4ccc(NCC5CCOCC5)c([N+](=O)[O-])c4)c(Oc4cnc5[nH]ccc5c4)c3)CC2)=C(c2ccc(Cl)cc2)C1 [Venetoclax] + C=CCn1c(=O)c2cnc(Nc3ccc(N4CCN(C)CC4)cc3)nc2n1-c1cccc(C(C)(C)O)n1 [AZD1775] (first compound max 1 µM, partner max 1 µM) | 0.0043 | 0.025 | 0.0267 | -0.0488 | -0.0298 | -0.0689 | 0.0635 | 0.0389 | -0.0598 | 0.0151 | -0.0031 | -0.0765 | 0.0034 | -0.0013 | 0.0453 | 0.0202 | -0.078 | -0.0237 | -0.0167 | 0.0168 |
| CC1(C)CCC(CN2CCN(c3ccc(C(=O)NS(=O)(=O)c4ccc(NCC5CCOCC5)c([N+](=O)[O-])c4)c(Oc4cnc5[nH]ccc5c4)c3)CC2)=C(c2ccc(Cl)cc2)C1 [Venetoclax] + CCN(CCO)CCCOc1ccc2c(Nc3cc(CC(=O)Nc4cccc(F)c4)[nH]n3)ncnc2c1 [AZD2811] (first compound max 1 µM, 7x7, partner max 1 µM) | -0.0244 | 0.198 | -0.011 | -0.0454 | 0.0046 | -0.0202 | 0.0052 | 0.242 | -0.0442 | 0.0185 | -0.0503 | -0.0091 | 0.0002 | -0.0114 | -0.0138 | 0.0087 | -0.0484 | -0.0139 | 0.0361 | 0.173 |

Source: the supplement of paper PMC11061612
